Experimental findings from patent US20250361253A1, “STING AGONIST COMPOUNDS” (Sutro Biopharma, Inc., priority 2022, published 2025) are described below.

Experiment [1] deals with T1, hSTING WT (Homo sapiens, UniProt Q86WV6). Description: Thermal shift assay (DSF). The class given is binding. Details: unit not given here. To be noted: compound at 3.12 uM. The text has this: Thermal shift assay experimental methods were followed based on the published methods described in Ramanjulu et al. Nature, 2018, 564, 439.
T1 sequence (Q86WV6 155-341 H232R limits assumed): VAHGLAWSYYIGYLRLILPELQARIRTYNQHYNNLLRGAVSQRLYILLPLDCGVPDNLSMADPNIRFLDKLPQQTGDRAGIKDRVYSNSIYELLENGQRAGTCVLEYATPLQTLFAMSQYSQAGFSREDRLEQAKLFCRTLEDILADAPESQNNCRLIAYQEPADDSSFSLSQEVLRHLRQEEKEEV
Experiment [2] has as its target T1, hSTING WT. Description: Surface plasmon resonance assay. It counts as binding. The settings on record: read-out: hSTING WT SPR (Kd). As to the method: Surface plasmon resonance assay experimental methods were followed based on the published methods described in Pan et al., Science, 2020 369, eaba6098. (“A” means EC50≤20 nM).
A further experiment has as its target T2, mSTING (Mus musculus, UniProt Q3TBT3).
T2 construct: host or cells: 293-Dual (HEK293-derived) reporter cells
T2 sequence (Q3TBT3 1-378): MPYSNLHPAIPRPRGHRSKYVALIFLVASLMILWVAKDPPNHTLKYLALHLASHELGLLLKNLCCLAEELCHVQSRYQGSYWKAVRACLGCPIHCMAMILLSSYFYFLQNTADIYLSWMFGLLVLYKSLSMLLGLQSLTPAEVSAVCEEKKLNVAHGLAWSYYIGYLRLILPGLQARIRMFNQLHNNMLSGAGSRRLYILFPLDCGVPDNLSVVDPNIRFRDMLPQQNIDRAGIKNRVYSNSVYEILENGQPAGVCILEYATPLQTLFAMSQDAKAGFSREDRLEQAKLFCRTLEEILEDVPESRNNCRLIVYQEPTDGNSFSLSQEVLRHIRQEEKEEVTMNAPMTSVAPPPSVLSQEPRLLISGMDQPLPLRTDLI
The experiment can be described thus: ISG reporter induction in 293-Dual mSTING reporter cells (QUANTI-Blue). It counts as cell-based. The settings on record: 293-Dual mSTING cells, overnight incubation. As to the method: (§1) Certain STING compounds of the disclosure were evaluated in an in vitro cell based assay.
(§2) 293-Dual hSTING-R232 and mSTING cells (Invivogen) were seeded at 25,000 cells/well (50 ul) and co-cultured with STING agonists (2× concentration, 50 ul) in clear, half-area, 96-well polystyrene plates. Cells and test samples were prepared in DMEM supplemented with 10% FBS, Glutamax, and PenStrep. After overnight incubation at 37 C in a CO2 incubator, 20 ul of supernatant was added to QUANTI-Blue detection reagent (Invivogen). After one hour incubation at 37 C, plates were read at 640/650 nm on EnVision plate reader (PerkinElmer). OD values were plotted by log(agonist) vs. response, variable slope, four parameter curve fit (Log transform) using GraphPad Prism software to determine EC50 values.

In a further experiment the target is T3, hSTING-R232 (Homo sapiens, UniProt Q86WV6, H232R).
T3 construct: host or cells: 293-Dual (HEK293-derived) reporter cells
T3 sequence (Q86WV6 whole entry H232R): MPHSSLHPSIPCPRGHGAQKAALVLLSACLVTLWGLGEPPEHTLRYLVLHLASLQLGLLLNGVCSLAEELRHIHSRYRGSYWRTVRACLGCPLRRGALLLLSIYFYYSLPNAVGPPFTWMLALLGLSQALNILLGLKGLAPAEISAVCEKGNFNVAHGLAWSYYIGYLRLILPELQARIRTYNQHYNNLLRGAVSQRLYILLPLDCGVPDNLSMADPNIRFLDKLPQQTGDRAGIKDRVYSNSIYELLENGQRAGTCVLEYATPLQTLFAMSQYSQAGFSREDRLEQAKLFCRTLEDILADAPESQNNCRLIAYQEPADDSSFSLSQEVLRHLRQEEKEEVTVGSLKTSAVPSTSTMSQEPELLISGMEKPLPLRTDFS
Description: ISG reporter induction in 293-Dual hSTING-R232 reporter cells (QUANTI-Blue). It counts as cell-based. To be noted: 293-Dual hSTING-R232 cells, overnight incubation. How it is done:
as §1, §2

Structures are written as SMILES.

Turning to `COc1cc2sc(C(=O)CCC(=O)O)cc2c(F)c1OCCCOc1c(OC)cc2sc(C(=O)CCP(=O)(O)O)cc2c1F` [Compound 7, 4-(4-Fluoro-5-(3-((4-fluoro-6-methoxy-2-(3-phosphonopropanoyl)benzo[b]thiophen-5-yl)oxy)propoxy)-6-methoxybenzo[b]thiophen-2-yl)-4-oxobutanoic acid], on hSTING WT [1], the “hSTING WT DSF (delta TmD @ 3.12 uM)” value is 20. In addition, the Kd on hSTING WT [2] is at most 20 nM. Further, the EC50 on mSTING and on hSTING-R232 was at most 50 nM in each case.

For the compound `COc1cc2sc(C(=O)CC(C)(C)C(=O)O)cc2c(F)c1OCCCOc1c(OC)cc2sc(C(=O)CS(=O)(=O)O)cc2c1F` [Compound 1, 4-(4-Fluoro-5-(3-((4-fluoro-6-methoxy-2-(2-sulfoacetyl)benzo[b]thiophen-5-yl)oxy)propoxy)-6-methoxybenzo[b]thiophen-2-yl)-2,2-dimethyl-4-oxobutanoic acid], at hSTING WT [1], the “hSTING WT DSF (delta TmD @ 3.12 uM)” value was 20. The Kd at hSTING WT [2] was at most 20 nM. Moreover, the values for the EC50 on mSTING and on hSTING-R232 were 50 to 150 nM and over 150 nM, respectively.

For `COc1cc2sc(C(=O)CC(C)(C)C(=O)O)cc2c(F)c1OCCCOc1c(OC)cc2sc(C(=O)CP(=O)(O)O)cc2c1F` [Compound 6, 4-(4-Fluoro-5-(3-((4-fluoro-6-methoxy-2-(2-phosphonoacetyl)benzo[b]thiophen-5-yl)oxy)propoxy)-6-methoxybenzo[b]thiophen-2-yl)-2,2-dimethyl-4-oxobutanoic acid], on hSTING WT [1], the “hSTING WT DSF (delta TmD @ 3.12 uM)” value is recorded as 20. The Kd on hSTING WT [2] is at most 20 nM. For the same compound, the EC50 at mSTING and on hSTING-R232 was at most 50 nM in each case.

One may read the Kd as the constant that tells how readily two partners part at equilibrium. One may read the EC50 as the concentration that produces a half-maximal response.
